Consider 2 molecules from article PMC11445189 (Frontiers in Toxicology, 2024).

Marks after values point to notes of the source that are not given here.

Data set [1] concerns zebrafish embryos. Put plainly: Single toxicity test for zebrafish embryos (ECx). Particulars: for EC50: Danio rerio, 144 h, read-out: EC50 (95% CI); for EC50 / EC5 (95% CI) / EC15 (95% CI) / EC25 (95% CI): embryonic toxicity (lethality + abnormality), embryo-larva stage, 6 days exposure, probit; for toxicity to zebrafish embryos, individually: at high concentrations, 500 and 1,000 μg/mL. In kind it is in vivo. As to the method: (§1) Zebrafish embryos were obtained from adult zebrafish continuously sub-cultured in Korea Institute Toxicology Laboratory, Republic of Korea and were maintained at 26°C ± 1°C in a climate chamber (16 h daylight: 8 h darkness) until use for toxicity tests ([Park et al., 2022]). […] At 6 days after exposure, embryonic toxicity (%) was scored as follows: [embryonic toxicity (%) = lethality (dead embryo + dead larva) + abnormality (unhatched eggs + abnormal larva)/initial embryos × 100]. Developmental abnormality of zebrafish was investigated based on apical phenotypic observation, such as coagulated embryos, lack of somite formation, non-detachment of the tail, and lack of heartbeat for 6 days after exposure ([OECD, 2013]). Embryonic toxicity (%) was used for estimating the effective concentration values (ECx) for each chemical and 95% confidence limits, by concentration-response curves (CETIS program version 1.8.7.15, Tidepool Scientific Software, United States) ([Park et al., 2022]).

In data set [2] the test system is zebrafish embryos. Put plainly: Realistic mixture toxicity test, embryonic toxicity. Format: in vivo. As to conditions: single chemical 10 ng/mL, 6 days after exposure. As to the method: as §1
To verify the developmental effects in zebrafish embryos caused by exposure to realistic mixtures, mixture toxicity tests with zebrafish embryos were performed at a range of environmentally relevant concentrations, and three exposure concentrations at a 1:1 mixing ratio (i.e., 1, 10, and 100 ng/mL of each chemical). […]

In data set [3] the test system is cyp1a1. Put plainly: qRT-PCR transcriptional alteration in zebrafish embryos. Format: in vivo. Particulars: single chemical 10 ng/mL, 6 days, normalized to β-actin. As to the method:
(§2) To verify the developmental effects in zebrafish embryos caused by exposure to realistic mixtures, mixture toxicity tests with zebrafish embryos were performed at a range of environmentally relevant concentrations, and three exposure concentrations at a 1:1 mixing ratio (i.e., 1, 10, and 100 ng/mL of each chemical). […] Realistic mixture toxicity tests using zebrafish embryos were performed under the same conditions as the single-toxicity tests.
(§3) To examine the transcriptional alteration of target genes linked to zebrafish embryonic development, The total RNA from 20 zebrafish embryos was extracted using a RNeasy Mini kit (Qiagen, Hilden, Germany), following the manufacturer’s instructions. The total RNA concentration was measured spectrophoto-metrically at 260/280 nm using a Gen5™ spectrophotometer (BioTek®, Winooski, VT, United States). […]
(§4) The primer sequences for target genes were designed to use for quantitative real-time polymerase chain reaction (qRT–PCR): namely aryl hydrocarbon receptor 2 (ahr2), cytochrome P450 monooxygenases (i.e., cyp1a1 and cyp1b1), nuclear factor erythroid 2-related factors (i.e., nrf1a and nrf2a), tumor suppressor gene (p53), thyroid stimulating hormone beta subunit (tsh-β), and thyroid hormone receptors (i.e., thraa and thrb) (Supplementary Table S1) ([Fan et al., 2018]; [Liu et al., 2011]; [Ren et al., 2020]; [Williams et al., 2013]). […]
On the technique in general: Real-time PCR tracks product formation cycle by cycle.

Data set [4] relates to cyp1b1. The description is as above. In kind it is in vivo. Particulars: single chemical 10 ng/mL, 6 days, normalized to β-actin. As to the method: as §2, §3, §4
For data set [5] the following is noted: ref Mason et al., 2013, cited from earlier work.
Data set [6] has as its system sheepshead minnow. As to conditions: acute toxicity, ref Gibbons et al., 2015; cited from earlier work.

A word on the EC50: it is the concentration needed to bring the measured effect to its halfway point. Take `CN/C(=N\[N+](=O)[O-])NCc1cnc(Cl)s1` [CLO, Clothianidin]: in data set [1], the EC50 was determined as 411 µg/mL; the “toxicity to zebrafish embryos, individually” value is on record as “toxic”; the “EC5 (95% CI)” value is listed as 65.28 (N.C.–104.61) µg/mL; the “EC15 (95% CI)” value was 255.72 (224.61–289.12) µg/mL. The “EC25 (95% CI)” value in data set [1] was 292.89 (247.77–332.07) µg/mL. In data set [2], the “Embryonic toxicity (%)” value was determined as 12.5 ± 3.4%. The “Relative fold change of gene expression, cyp1a1” value in data set [3] is on record as 0.38±0.06^a. Besides, the “Relative fold change of gene expression, cyp1b1” value in data set [4] was 1.36±0.34^a. Further, the half-life in sediment in data set [5] (sediment) was 56 days. In data set [5] (soil), the half-life in soil entry was “up to 1,386 days”. In addition, in data set [6], the “50% lethal concentration (LC50)” value is 161 µg/mL.
Consider `O=[N+]([O-])NC1=NCCN1Cc1ccc(Cl)nc1` [IMD, imidacloprid], for which, in data set [1], the EC50 is 268 µg/mL; the “toxicity to zebrafish embryos, individually” value is “toxic”; the “EC5 (95% CI)” value is recorded as 60.80 (N.C.–108.36) µg/mL; the “EC15 (95% CI)” value was 145.69 (113.89–158.99) µg/mL. For the same molecule, the “EC25 (95% CI)” value in data set [1] is 175.04 (146.25–196.54) µg/mL. Besides, in data set [2], the “Embryonic toxicity (%)” value was 12.5 ± 2.8%. Moreover, in data set [6], the “50% lethal concentration (LC50)” value is 93.6 µg/mL.
